Laboratory results from patent US20230085307A1, “PYRIDAZINONE COMPOUND AND HERBICIDE” (NISSAN CHEMICAL CORPORATION, priority 2019, published 2023).

Tests used:
green foxtail [1] = assay: Test Example 5: herbicidal effect by foliage application, plastic box (Table 20, symbol G); format: in vivo, green foxtail (Setaria viridis)
In short: (§1)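 Post-emergence foliar test in sterilized diluvial soil. Compound applied as water-diluted emulsion at a predetermined rate to 14-day-old plants; evaluation at three weeks.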

barnyard grass [2] = assay: Test Example 4: herbicidal effect by soil treatment (Table 19, symbol H); format: in vivo, barnyard grass (Echinochloa crus-galli); conditions: amount of applied herbicide 320 g/ha
Description: (§2) [Test Example 4] Herbicidal Effect Test by Soil Treatment
(§3) Sterilized diluvial soil was placed in a plastic box having a length of 21 cm, a width of 13 cm, and a depth of 7 cm. The seeds of each of southern crabgrass, green foxtail, barnyard grass, wild oat, blackgrass, Italian ryegrass, windgrass, velvetleaf, redroot pigweed, lambsquarters, chickweed, false cleavers, persian speedwell, corn, soybean, rice, wheat, beet, and rapeseed were sowed in a spot-like manner and covered with the soil having a thickness of about 1.5 cm. Subsequently, the emulsion agent of the compound of the present invention prepared according to Formulation Example 2 was diluted with water so as to achieve a predetermined herbicide amount, and the diluted emulsion agent was uniformly applied to the surface of the soil with a small-sized spray. The plastic box was placed in a greenhouse at 25° C. to 30° C. for growth of the plants. Three weeks after the herbicide application, the effect of the herbicide on each plant was evaluated according to the criteria of Test Example 1.

velvetleaf [3] = assay: Test Example 4: herbicidal effect by soil treatment (Table 19, symbol M); format: in vivo, velvetleaf (Abutilon theophrasti); conditions: amount of applied herbicide 320 g/ha
In short: (§4)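 Scoring uses the grading scale of an earlier test, three weeks post-application. Treatment consists of spraying a diluted emulsion formulation across the surface of sterilized diluvial soil in which seeds are buried near 1.5 cm deep; boxes are kept in a greenhouse between 25° C. and 30° C.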

lambsquarters [4] = assay: Test Example 5: herbicidal effect by foliage application, plastic box (Table 20, symbol O); format: in vivo, lambsquarters (Chenopodium album)
In short: as §1

southern crabgrass [5] = assay: Test Example 4: herbicidal effect by soil treatment (Table 19, symbol F); format: in vivo, southern crabgrass (Digitaria ciliaris); conditions: amount of applied herbicide 320 g/ha
Description: as §2, §3

barnyard grass [6] = assay: Test Example 5: herbicidal effect by foliage application, plastic box (Table 20, symbol H); format: in vivo, barnyard grass (Echinochloa crus-galli)
In short: as §1

lambsquarters [7] = assay: Test Example 4: herbicidal effect by soil treatment (Table 19, symbol O); format: in vivo, lambsquarters (Chenopodium album); conditions: amount of applied herbicide 320 g/ha
In short: as §4

southern crabgrass [8] = assay: Test Example 5: herbicidal effect by foliage application, plastic box (Table 20, symbol F); format: in vivo, southern crabgrass (Digitaria ciliaris)
In short: as §1

Chinese sprangletop = assay: Test Example 3: herbicidal effect by foliage application, Wagner pot (Table 18, symbol D); format: in vivo, chinese sprangletop (Leptochloa chinensis); conditions: for herbicidal effect on Chinese sprangletop (D): 320 g/ha
In short: (§5)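 Plants were sown in alluvial soil held under 0.1–0.5 cm standing water and grown 14 days in a greenhouse at 25–30 °C. An emulsifiable formulation, water-diluted to the set dose, was then sprayed onto the foliage, and effects were scored three weeks later using previously defined criteria.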

velvetleaf [9] = assay: Test Example 5: herbicidal effect by foliage application, plastic box (Table 20, symbol M); format: in vivo, velvetleaf (Abutilon theophrasti)
In short: as §1

green foxtail [10] = assay: Test Example 4: herbicidal effect by soil treatment (Table 19, symbol G); format: in vivo, green foxtail (Setaria viridis); conditions: amount of applied herbicide 320 g/ha
In short: as §4

rice flat sedge = assay: Test Example 3: herbicidal effect by foliage application, Wagner pot (Table 18, symbol E); format: in vivo, rice flat sedge (Cyperus iria); conditions: for herbicidal effect on rice flat sedge (E): 320 g/ha
In short: as §5

redroot pigweed [11] = assay: Test Example 5: herbicidal effect by foliage application, plastic box (Table 20, symbol N); format: in vivo, redroot pigweed (Amaranthus retroflexus)
In short: as §1

barnyard grass [12] = assay: Test Example 3: herbicidal effect by foliage application, Wagner pot (Table 18, symbol H); format: in vivo, barnyard grass (Echinochloa crus-galli); conditions: for herbicidal effect on barnyard grass (H): 320 g/ha
In short: as §5

redroot pigweed [13] = assay: Test Example 4: herbicidal effect by soil treatment (Table 19, symbol N); format: in vivo, redroot pigweed (Amaranthus retroflexus); conditions: amount of applied herbicide 320 g/ha
In short: as §4

windgrass = assay: Test Example 5: herbicidal effect by foliage application, plastic box (Table 20, symbol L); format: in vivo, windgrass (Apera spica-venti); conditions: foliage application after 14-day growth, evaluated three weeks after application
In short: as §1

wild oat = assay: Test Example 5: herbicidal effect by foliage application, plastic box (Table 20, symbol I); format: in vivo, wild oat (Avena fatua); conditions: foliage application after 14-day growth, evaluated three weeks after application
In short: as §1

persian speedwell = assay: Test Example 5: herbicidal effect by foliage application, plastic box (Table 20, symbol R); format: in vivo, Persian speedwell (Veronica persica); conditions: 320 g/ha, foliage application after 14-day growth, evaluated three weeks after application
In short: as §1

chickweed = assay: Test Example 5: herbicidal effect by foliage application, plastic box (Table 20, symbol P); format: in vivo, common chickweed (Stellaria media); conditions: foliage application after 14-day growth, evaluated three weeks after application
Description: [Test Example 5] Herbicidal Effect Test by Foliage Application
as §3, with “Thereafter, the plants were grown in a greenhouse at 25° C. to 30° C. After 14-day growth of the plants,” for “Subsequently,”, “a foliage part” for “the surface of the soil”, “spray.” for “spray. The plastic box was placed in a greenhouse at 25° C. to 30° C. for growth of the plants.”

Italian ryegrass = assay: Test Example 5: herbicidal effect by foliage application, plastic box (Table 20, symbol K); format: in vivo, Italian ryegrass (Lolium multiflorum); conditions: foliage application after 14-day growth, evaluated three weeks after application
In short: as §1

blackgrass = assay: Test Example 5: herbicidal effect by foliage application, plastic box (Table 20, symbol J); format: in vivo, blackgrass (Alopecurus myosuroides); conditions: amount of applied herbicide 320 g/ha; foliage application after 14-day growth; evaluated three weeks after application
In short: as §1

[14] = foliage application, 320 g/ha, three weeks after application
[15] = amount of applied herbicide 320 g/ha
[16] = 320 g/ha, foliage application after 14-day growth, evaluated three weeks after application
[17] = amount of applied herbicide 320 g/ha, foliage application after 14-day growth, evaluated three weeks after application

## Cc1nn(C)c(=O)c(-c2c(-c3ccsc3)sc3ccc(F)cc23)c1O [2-463]
Green foxtail [1]; [14]
  G: green foxtail, herbicidal effect grade: 3 (Herbicidal rate of 40% or more and less than 70%)
Barnyard grass [2]
  herbicidal effect, H: barnyard grass: 3 (Herbicidal rate of 40% or more and less than 70%)
Velvetleaf [3]
  herbicidal effect, M: velvetleaf: 3 (Herbicidal rate of 40% or more and less than 70%)
Lambsquarters [4]; [14]
  O: lambsquarters, herbicidal effect grade: 3 (Herbicidal rate of 40% or more and less than 70%)
Southern crabgrass [5]
  herbicidal effect, F: southern crabgrass: 2 (Herbicidal rate of 20% or more and less than 40%)
Barnyard grass [6]; [14]
  H: barnyard grass, herbicidal effect grade: 3 (Herbicidal rate of 40% or more and less than 70%)
Lambsquarters [7]
  herbicidal effect, O: lambsquarters: 3 (Herbicidal rate of 40% or more and less than 70%)
Southern crabgrass [8]; [14]
  F: southern crabgrass, herbicidal effect grade: 4 (Herbicidal rate of 70% or more and less than 90%)
Chinese sprangletop; [15]
  herbicidal effect on D: Chinese sprangletop: 0 (Herbicidal rate of 5% or less (almost no effect))
Velvetleaf [9]; [14]
  M: velvetleaf, herbicidal effect grade: 5 (Herbicidal rate of 90% or more (almost completely withered))
Green foxtail [10]
  herbicidal effect, G: green foxtail: 0 (Herbicidal rate of 5% or less (almost no effect))
Rice flat sedge; [15]
  herbicidal effect on E: rice flat sedge: 0 (Herbicidal rate of 5% or less (almost no effect))
Redroot pigweed [11]; [14]
  N: redroot pigweed, herbicidal effect grade: 5 (Herbicidal rate of 90% or more (almost completely withered))
Barnyard grass [12]; [15]
  herbicidal effect on H: barnyard grass: 3 (Herbicidal rate of 40% or more and less than 70%)
Redroot pigweed [13]
  herbicidal effect, N: redroot pigweed: 4 (Herbicidal rate of 70% or more and less than 90%)

## CCCC(=O)Oc1c(C)nn(C)c(=O)c1-c1c(-c2ccc(OC)c(OC)c2)sc2c(F)cccc12 [4-014]
Green foxtail [1]; [16]
  herbicidal effect on G: green foxtail (evaluation grade 0-5): 4 (Herbicidal rate of 70% or more and less than 90%)
windgrass; 320 g/ha
  herbicidal effect on L: windgrass (evaluation grade 0-5): 0 (Herbicidal rate of 5% or less (almost no effect))
Lambsquarters [4]; [16]
  herbicidal effect on O: lambsquarters (evaluation grade 0-5): 0 (Herbicidal rate of 5% or less (almost no effect))
Wild oat; 320 g/ha
  herbicidal effect on I: wild oat (evaluation grade 0-5): 0 (Herbicidal rate of 5% or less (almost no effect))
Barnyard grass [6]; [16]
  herbicidal effect on H: barnyard grass (evaluation grade 0-5): 2 (Herbicidal rate of 20% or more and less than 40%)
Persian speedwell
  herbicidal effect on R: persian speedwell (evaluation grade 0-5): 3 (Herbicidal rate of 40% or more and less than 70%)
Southern crabgrass [8]; [16]
  herbicidal effect on F: southern crabgrass (evaluation grade 0-5): 0 (Herbicidal rate of 5% or less (almost no effect))
Chinese sprangletop
  herbicidal effect on Chinese sprangletop (D): 0 (Herbicidal rate of 5% or less (almost no effect))
Velvetleaf [9]; [16]
  herbicidal effect on M: velvetleaf (evaluation grade 0-5): 3 (Herbicidal rate of 40% or more and less than 70%)
chickweed; 320 g/ha
  herbicidal effect on P: chickweed (evaluation grade 0-5): 5 (Herbicidal rate of 90% or more (almost completely withered))
Rice flat sedge
  herbicidal effect on rice flat sedge (E): 0 (Herbicidal rate of 5% or less (almost no effect))
Redroot pigweed [11]; [16]
  herbicidal effect on N: redroot pigweed (evaluation grade 0-5): 1 (Herbicidal rate of 5% or more and less than 20%)
Italian ryegrass; 320 g/ha
  herbicidal effect on K: Italian ryegrass (evaluation grade 0-5): 1 (Herbicidal rate of 5% or more and less than 20%)
Barnyard grass [12]
  herbicidal effect on barnyard grass (H): 3 (Herbicidal rate of 40% or more and less than 70%)

## Cc1nn(C)c(=O)c(-c2c(-c3cccc(C(F)(F)F)c3)sc3c(Cl)cccc23)c1O [4-072]
Green foxtail [1]; [17]
  Herbicidal effect by foliage application, G: green foxtail: 3 (Herbicidal rate of 40% or more and less than 70%)
windgrass; [15]
  Herbicidal effect by foliage application, L: windgrass: 0 (Herbicidal rate of 5% or less (almost no effect))
Lambsquarters [4]; [17]
  Herbicidal effect by foliage application, O: lambsquarters: 2 (Herbicidal rate of 20% or more and less than 40%)
Wild oat; [15]
  Herbicidal effect by foliage application, I: wild oat: 0 (Herbicidal rate of 5% or less (almost no effect))
Barnyard grass [6]; [17]
  Herbicidal effect by foliage application, H: barnyard grass: 1 (Herbicidal rate of 5% or more and less than 20%)
Southern crabgrass [8]; [17]
  Herbicidal effect by foliage application, F: southern crabgrass: 4 (Herbicidal rate of 70% or more and less than 90%)
Chinese sprangletop
  herbicidal effect on Chinese sprangletop (D): 3 (Herbicidal rate of 40% or more and less than 70%)
Velvetleaf [9]; [17]
  Herbicidal effect by foliage application, M: velvetleaf: 3 (Herbicidal rate of 40% or more and less than 70%)
chickweed; [15]
  Herbicidal effect by foliage application, P: chickweed: 5 (Herbicidal rate of 90% or more (almost completely withered))
Rice flat sedge
  herbicidal effect on rice flat sedge (E): 4 (Herbicidal rate of 70% or more and less than 90%)
Redroot pigweed [11]; [17]
  Herbicidal effect by foliage application, N: redroot pigweed: 5 (Herbicidal rate of 90% or more (almost completely withered))
blackgrass
  Herbicidal effect by foliage application, J: blackgrass: 0 (Herbicidal rate of 5% or less (almost no effect))
Italian ryegrass; [15]
  Herbicidal effect by foliage application, K: Italian ryegrass: 1 (Herbicidal rate of 5% or more and less than 20%)
Barnyard grass [12]
  herbicidal effect on barnyard grass (H): 3 (Herbicidal rate of 40% or more and less than 70%)
